Tested on: histamine H1-receptor
Assay: inhibition of histamine induced bronchoconstriction in vivo
Parameters: species or system guinea pig
Conditions: anaesthetised guinea pigs, intravenous injection, histamine dose-response curve 5 minutes later
Procedure: Guinea pigs of either sex are anaesthetised by intraperitoneal injection of sodium pentobarbitone, 90 mg/kg. The trachea is cannulated. The animal is respired artificially with a fixed volume of air just adequate to inflate the lungs. The pressure needed to inflate the lungs is monitored from the respiratory system using a low pressure transducer. Intravenous injection of histamine causes dose-dependent increases in the pressure to inflate the lungs reflecting the bronchoconstrictor action of histamine. Responses to histamine can be antagonised using histamine H1 -receptor antagonists.
Dose-response curves to histamine are established at 20, 40, 80, 160 and 320 nmols/kg. Antagonists are then administered by intravenous injection and 5 minutes later a new histamine dose-response curve is established increasing the doses of histamine as necessary. The effect of the antagonist can be quantified by the displacement, to the right, of the histamine dose-response curve, expressed as a dose-ratio. A series of doses of antagonists may be given to each animal allowing calculation of dose-ratios for each dose of antagonist. For the compounds of Examples 1, 2 and 4, the doses (μmol/kg) required to give a dose ratio of 11 ((DR-1)=10) are 0.022, 0.06 and 0.0048 respectively.

| Compound | dose required to give a dose ratio of 11 ((DR-1)=10) |
| --- | --- |
| O=c1nc(NCCCC2CCCc3cccnc32)[nH]cc1Cc1cc[n+]([O-])cc1 (stereo not drawn) [Example 1, 2-[3-(5,6,7,8-Tetrahydroquinol-8-yl)propylamino]-5-[1-oxopyrid-4-ylmethyl]-4(1H)-pyrimidone] | 0.022 µmol/kg |
| Cc1ccc(Cc2c[nH]c(NCCCC3CCCc4cccnc43)nc2=O)cn1 (stereo not drawn) [Example 2, 2-[3-(5,6,7,8-Tetrahydroquinol-8-yl)propylamino]-5-(6-methylpyrid-3-ylmethyl)-4(1H)-pyrimidone] | 0.06 µmol/kg |
| O=c1nc(NCCCC2CCCc3cccnc32)[nH]cc1Cc1ccc(CO)nc1 (stereo not drawn) [Example 4, 2-[3-(5,6,7,8-Tetrahydroquinol-8-yl)propylamino]-5-(6-hydroxymethylpyrid-3-ylmethyl)-4(1H)-pyrimidone] | 0.0048 µmol/kg |

Reference: patent US4727076A, “Tetrahydroquinolinylalkyl amino pyridones and ring homologues thereof, useful as histamine-H1 -receptor antagonists” (Smith Kline & French Laboratories Ltd., priority 1986, dated 1988)
